Patent US8404708B2, “Dual NK1/NK3 receptor antagonists” (Hoffmann-La Roche Inc., priority 2004, dated 2013)
pKi: −log10 of the molar value.

How the values were obtained:
human NK1 receptor = human NK1 receptor (Homo sapiens, UniProt P25103); assay: NK1 receptor binding, [3H]substance P displacement, CHO cell membranes; settings: first value of the cell pKi NK1/NK3; human NK1 receptor, [3H]substance P
[1] = biological target: T1, Recombinant human NK3 (hNK3) receptor (Homo sapiens, UniProt P29371); assay: NK3 receptor binding, [3H]SR142801 displacement, membrane preparations; settings: second value of the cell pKi NK1/NK3; hNK3 receptor, [3H]SR142801
T1 construct: expressed in transfected cells
T1 sequence (P29371 1-465): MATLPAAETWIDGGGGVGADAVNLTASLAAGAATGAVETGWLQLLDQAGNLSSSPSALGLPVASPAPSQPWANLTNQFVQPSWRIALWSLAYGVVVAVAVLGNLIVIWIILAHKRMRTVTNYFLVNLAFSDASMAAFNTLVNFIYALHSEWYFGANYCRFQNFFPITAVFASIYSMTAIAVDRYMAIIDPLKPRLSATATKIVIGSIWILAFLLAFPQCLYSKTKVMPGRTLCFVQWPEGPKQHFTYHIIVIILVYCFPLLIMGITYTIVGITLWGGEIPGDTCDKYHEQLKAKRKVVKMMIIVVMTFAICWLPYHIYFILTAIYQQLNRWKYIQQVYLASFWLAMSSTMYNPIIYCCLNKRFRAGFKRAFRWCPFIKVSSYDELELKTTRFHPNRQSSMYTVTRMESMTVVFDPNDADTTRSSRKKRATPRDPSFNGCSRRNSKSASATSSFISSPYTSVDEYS
Procedure, shortened: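 Room-temperature, 90-min filtration binding assay using about 2.5 μg recombinant receptor membranes per well; separation on polyethyleneimine-treated glass-fibre (GF/C) filters and liquid scintillation read-out, with 10 μM SB222200 for nonspecific binding.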

Sequence of human NK1 receptor (P25103 whole entry): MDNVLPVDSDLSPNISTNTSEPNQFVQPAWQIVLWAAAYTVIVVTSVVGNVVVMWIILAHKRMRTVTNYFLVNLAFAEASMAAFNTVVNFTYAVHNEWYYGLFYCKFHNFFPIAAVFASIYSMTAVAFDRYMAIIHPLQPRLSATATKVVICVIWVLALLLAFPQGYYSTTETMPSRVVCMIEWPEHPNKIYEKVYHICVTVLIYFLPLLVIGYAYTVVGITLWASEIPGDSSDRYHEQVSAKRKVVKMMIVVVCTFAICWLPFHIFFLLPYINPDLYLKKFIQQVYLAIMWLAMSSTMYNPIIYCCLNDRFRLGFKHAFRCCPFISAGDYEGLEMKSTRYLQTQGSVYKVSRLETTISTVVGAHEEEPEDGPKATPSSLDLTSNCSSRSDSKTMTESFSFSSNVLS

| Compound | pKi (human NK1 receptor) | pKi [1] |
| --- | --- | --- |
| CC(=O)N[C@H]1CCN(c2cc(-c3ccc(F)cc3C)c(N(C)C(=O)C(C)(C)c3cc(C(F)(F)F)cc(C(F)(F)F)c3)cn2)C1 [Example 99, (S)-N-[6-(3-Acetylamino-pyrrolidin-1-yl)-4-(4-fluoro-2-methyl-phenyl)-pyridin-3-yl]-2-(3,5-bis-trifluoromethyl-phenyl)-N-methyl-isobutyramide] | 9.09 | 7.26 |
| CC(=O)N[C@@H]1CCN(c2cc(-c3ccc(F)cc3C)c(N(C)C(=O)C(C)(C)c3cc(C(F)(F)F)cc(C(F)(F)F)c3)cn2)C1 [Example 100, (R)-N-[6-(3-Acetylamino-pyrrolidin-1-yl)-4-(4-fluoro-2-methyl-phenyl)-pyridin-3-yl]-2-(3,5-bis-trifluoromethyl-phenyl)-N-methyl-isobutyramide] | 8.74 | 7.70 |
| CC(=O)N(C)[C@@H]1CCN(c2cc(-c3ccc(F)cc3C)c(N(C)C(=O)C(C)(C)c3cc(C(F)(F)F)cc(C(F)(F)F)c3)cn2)C1 [Example 101, (R)-N-[6-[3-(Acetyl-methyl-amino)-pyrrolidin-1-yl]-4-(4-fluoro-2-methyl-phenyl)-pyridin-3-yl]-2-(3,5-bis-trifluoromethyl-phenyl)-N-methyl-isobutyramide] | 8.77 | 8.03 |
| CCN(C(C)=O)[C@@H]1CCN(c2cc(-c3ccc(F)cc3C)c(N(C)C(=O)C(C)(C)c3cc(C(F)(F)F)cc(C(F)(F)F)c3)cn2)C1 [Example 102, (R)-N-[6-[3-(Acetyl-ethyl-amino)-pyrrolidin-1-yl]-4-(4-fluoro-2-methyl-phenyl)-pyridin-3-yl]-2-(3,5-bis-trifluoromethyl-phenyl)-N-methyl-isobutyramide] | 8.71 | 7.88 |
| Cc1cc(F)ccc1-c1cc(N2CC[C@H](N)C2)ncc1N(C)C(=O)C(C)(C)c1cc(C(F)(F)F)cc(C(F)(F)F)c1 [Example 103, (S)-N-[6-(3-Amino-pyrrolidin-1-yl)-4-(4-fluoro-2-methyl-phenyl)-pyridin-3-yl]-2-(3,5-bis-trifluoromethyl-phenyl)-N-methyl-isobutyramide] | 8.78 | 7.80 |
| Cc1cc(F)ccc1-c1cc(N2CC[C@H](NS(C)(=O)=O)C2)ncc1N(C)C(=O)C(C)(C)c1cc(C(F)(F)F)cc(C(F)(F)F)c1 [Example 104, (S)-2-(3,5-Bis-trifluoromethyl-phenyl)-N-[4-(4-fluoro-2-methyl-phenyl)-6-(3-methanesulfonylamino-pyrrolidin-1-yl)-pyridin-3-yl]-N-methyl-isobutyramide] | 8.79 | 8.17 |
| Cc1cc(F)ccc1-c1cc(N2CC[C@H](N(C)S(C)(=O)=O)C2)ncc1N(C)C(=O)C(C)(C)c1cc(C(F)(F)F)cc(C(F)(F)F)c1 [Example 105, (S)-2-(3,5-Bis-trifluoromethyl-phenyl)-N-{4-(4-fluoro-2-methyl-phenyl)-6-[3-(methanesulfonyl-methyl-amino)-pyrrolidin-1-yl]-pyridin-3-yl}-N-methyl-isobutyramide] | 8.99 | 8.28 |
| CCN([C@H]1CCN(c2cc(-c3ccc(F)cc3C)c(N(C)C(=O)C(C)(C)c3cc(C(F)(F)F)cc(C(F)(F)F)c3)cn2)C1)S(C)(=O)=O [Example 106] | 9.23 | 8.33 |
| CC(=O)N(C)[C@H]1CCN(c2cc(-c3ccc(F)cc3C)c(N(C)C(=O)C(C)(C)c3cc(C(F)(F)F)cc(C(F)(F)F)c3)cn2)C1 [Example 107, (S)-N-[6-[3-(Acetyl-methyl-amino)-pyrrolidin-1-yl]-4-(4-fluoro-2-methyl-phenyl)-pyridin-3-yl]-2-(3,5-bis-trifluoromethyl-phenyl)-N-methyl-isobutyramide] | 8.63 | 7.93 |
| CCN(C(C)=O)[C@H]1CCN(c2cc(-c3ccc(F)cc3C)c(N(C)C(=O)C(C)(C)c3cc(C(F)(F)F)cc(C(F)(F)F)c3)cn2)C1 [Example 108, (S)-N-[6-[3-(Acetyl-ethyl-amino)-pyrrolidin-1-yl]-4-(4-fluoro-2-methyl-phenyl)-pyridin-3-yl]-2-(3,5-bis-trifluoromethyl-phenyl)-N-methyl-isobutyramide] | 8.61 | 8.05 |
| Cc1cc(F)ccc1-c1cc(N2CC[C@H](O)C2)ncc1N(C)C(=O)C(C)(C)c1cc(C(F)(F)F)cc(C(F)(F)F)c1 [Example 109, (S)-2-(3,5-Bis-trifluoromethyl-phenyl)-N-[4-(4-fluoro-2-methyl-phenyl)-6-(3-hydroxy-pyrrolidin-1-yl)-pyridin-3-yl]-N-methyl-isobutyramide] | 8.69 | 7.87 |
| Cc1cc(F)ccc1-c1cc(N2CCC(=O)C2)ncc1N(C)C(=O)C(C)(C)c1cc(C(F)(F)F)cc(C(F)(F)F)c1 [Example 111, 2-(3,5-Bis-trifluoromethyl-phenyl)-N-[4-(4-fluoro-2-methyl-phenyl)-6-(3-oxo-pyrrolidin-1-yl)-pyridin-3-yl]-N-methyl-isobutyramide] | 8.68 | 8.39 |
| CN(C(=O)C(C)(C)c1cc(C(F)(F)F)cc(C(F)(F)F)c1)c1cnc(N2CCC(N)CC2)cc1-c1ccccc1Cl [Example 112, N-[4-Amino-4′-(2-chloro-phenyl)-3,4,5,6-tetrahydro-2H-[1,2′]bipyridinyl-5′-yl]-2-(3,5-bis-trifluoromethyl-phenyl)-N-methyl-isobutyramide] | 9.25 | 8.26 |
| CN(C(=O)C(C)(C)c1cc(C(F)(F)F)cc(C(F)(F)F)c1)c1cnc(N2CCC(NS(C)(=O)=O)CC2)cc1-c1ccccc1Cl [Example 113, 2-(3,5-Bis-trifluoromethyl-phenyl)-N-[4′-(2-chloro-phenyl)-4-methanesulfonylamino-3,4,5,6-tetrahydro-2H-[1,2′]bipyridinyl-5′-yl]-N-methyl-isobutyramide] | 8.24 | 8.46 |
| CC(=O)NC1CCN(c2cc(-c3ccc(F)cc3C)c(N(C)C(=O)C(C)(C)c3cc(C(F)(F)F)cc(C(F)(F)F)c3)cn2)CC1 [Example 114, N-[4-Acetylamino-4′-(4-fluoro-2-methyl-phenyl)-3,4,5,6-tetrahydro-2H-[1,2′]bipyridinyl-5′-yl]-2-(3,5-bis-trifluoromethyl-phenyl)-N-methyl-isobutyramide] | 9.22 | 7.79 |
| CN(CCO)c1cc(-c2ccc(F)cc2)c(N(C)C(=O)C(C)(C)c2cc(C(F)(F)F)cc(C(F)(F)F)c2)cn1 [Example 115, 2-(3,5-bis-trifluoromethyl-phenyl)-N-{4-(4-fluoro-phenyl)-6-[(2-hydroxy-ethyl)-methyl-amino]-pyridin-3-yl}-N-methyl-isobutyramide] | 8.73 | 7.52 |
| CCN(CCO)c1cc(-c2ccc(F)cc2)c(N(C)C(=O)C(C)(C)c2cc(C(F)(F)F)cc(C(F)(F)F)c2)cn1 [Example 116, 2-(3,5-Bis-trifluoromethyl-phenyl)-N-[6-[ethyl-(2-hydroxy-ethyl)-amino]-4-(4-fluoro-phenyl)-pyridin-3-yl]-N-methyl-isobutyramide] | 8.41 | 7.49 |
| Cc1ccccc1-c1cc(N(C)CCO)ncc1N(C)C(=O)C(C)(C)c1cc(C(F)(F)F)cc(C(F)(F)F)c1 [Example 117, 2-(3,5-Bis-trifluoromethyl-phenyl)-N-{6-[(2-hydroxy-ethyl)-methyl-amino]-4-o-tolyl-pyridin-3-yl}-N-methyl-isobutyramide] | 8.68 | 8.51 |
| CCN(CCO)c1cc(-c2ccccc2C)c(N(C)C(=O)C(C)(C)c2cc(C(F)(F)F)cc(C(F)(F)F)c2)cn1 [Example 118, 2-(3,5-Bis-trifluoromethyl-phenyl)-N-{6-[ethyl-(2-hydroxy-ethyl)-amino]-4-o-tolyl-pyridin-3-yl}-N-methyl-isobutyramide] | 8.44 | 8.34 |
| CCCN(CCO)c1cc(-c2ccccc2C)c(N(C)C(=O)C(C)(C)c2cc(C(F)(F)F)cc(C(F)(F)F)c2)cn1 [Example 119, 2-(3,5-Bis-trifluoromethyl-phenyl)-N-{6-[(2-hydroxy-ethyl)-propyl-amino]-4-o-tolyl-pyridin-3-yl}-N-methyl-isobutyramide] | 8.40 | 8.64 |
| Cc1ccccc1-c1cc(NC[C@H](C)O)ncc1N(C)C(=O)C(C)(C)c1cc(C(F)(F)F)cc(C(F)(F)F)c1 [Example 120, (S)-2-(3,5-Bis-trifluoromethyl-phenyl)-N-[6-(2-hydroxy-propylamino)-4-o-tolyl-pyridin-3-yl]-N-methyl-isobutyramide] | 8.86 | 8.00 |
| Cc1ccccc1-c1cc(N(CC(C)O)CC(C)O)ncc1N(C)C(=O)C(C)(C)c1cc(C(F)(F)F)cc(C(F)(F)F)c1 (stereo not shown) [Example 121, N-{6-[Bis-(2-hydroxy-propyl)-amino]-4-o-tolyl-pyridin-3-yl}-2-(3,5-bis-trifluoromethyl-phenyl)-N-methyl-isobutyramide] | 8.54 | 7.96 |
| Cc1ccccc1-c1cc(NC[C@H](O)CO)ncc1N(C)C(=O)C(C)(C)c1cc(C(F)(F)F)cc(C(F)(F)F)c1 [Example 122, (S)-2-(3,5-Bis-trifluoromethyl-phenyl)-N-[6-(2,3-dihydroxy-propylamino)-4-o-tolyl-pyridin-3-yl]-N-methyl-isobutyramide] | 8.72 | 7.71 |
